Experimental findings from patent publication US10398672B2, “Methods and compositions for targeting cancer stem cells” (Whitehead Institute for Biomedical Research, priority 2014, dated 2019) are described below.

For the test, the system named is NAMEC cells transformed with Ras. Conditions: mouse, in vivo.

For cholera toxin, the “loss of tumor-initiating ability compared to untreated NAMEC cells” value came out at 100 fold.
